Assay results reported in article PMC7914639, “Antioxidant, Pancreatic Lipase Inhibitory, and Tyrosinase Inhibitory Activities of Extracts of the Invasive Plant Spartina anglica (Cord-Grass)” (Antioxidants, 2021).

How the values were obtained:
[1] = ABTS radical-scavenging assay; conditions: for ABTS Radical Scavenging (%): Table S4; for IC50: read-out: Radical Scavenging Activity Against ABTS IC50
Method: ABTS radical-scavenging activity was measured using a modified method of Re et al.. The ABTS stock solution was diluted in water to a concentration of 7.4 mM. The ABTS radical was produced by mixing ABTS stock solution with 2.45 mM potassium persulfate and incubating in dark for 12 h at room temperature. The ABTS solution was diluted with ethanol to obtain an absorbance (Ablank) of 0.70 ± 0.02 at 415 nm. After adding 95 μL of diluted ABTS solution to 5 μL of the sample, the mixture was incubated at room temperature for 15 min in dark. The absorbance (Asample) at 415 nm was measured using a microplate reader (Model Infinite M200 PRO; Tecan, Austria). The blank was prepared using the same procedure with deionized water instead of the sample. The ABTS radical scavenging activity was calculated as a percentage using the Equation (2) ABTS radical scavenging activity (%) = [1 − (Asample/Ablank)] × 100(2)

[2] = system: human melanocyte tyrosinase; design: method as in PMID 16442796; conditions: at 100 μM; cited from earlier work
[3] = system: microphthalmia-associated transcription factor, tyrosinase, and tyrosinase-related proteins; design: method as in PMID 30146944; conditions: compound isolated from stem extract of Aurea helianthus; cited from earlier work
[4] = DPPH free radical-scavenging activity; conditions: for DPPH Radical Scavenging (%): Table S3; for IC50: read-out: Radical-Scavenging Activity Against DPPH IC50
Method: DPPH free radical-scavenging properties were evaluated using a previously reported method. Test sample (an extract, a fraction or a compound) in 100 μL of dimethyl sulfoxide (DMSO) (blank: 100 μL of DMSO solution) was added to 100 μL of an ethanolic solution of DPPH (60 μM) in the wells of a 96-well microplate. […] After the sample and the reagents had been mixed gently and incubated for 30 min at room temperature, the absorbance (A) at 540 nm was evaluated using a microplate reader (Model Infinite M200 PRO; Tecan, Austria). The free radical-scavenging activity was calculated as a percentage using the equation DPPH free radical-scavenging activity (%) = [1 − (Asample/Ablank)] × 100.(1)

[5] = target: T1, porcine pancreatic lipase (Sus scrofa, UniProt P00591); experiment: Pancreatic lipase inhibition assay (p-NPB hydrolysis); type: biochemical; conditions: for inhibition at 10 µg/mL: 10 μg/mL; for inhibition at 25 µg/mL: 25 μg/mL; for inhibition at 50 µg/mL: 50 μg/mL
T1 construct: purchased Sigma-Aldrich (St. Louis, MO, USA) Type II
T1 sequence (P00591 1-450): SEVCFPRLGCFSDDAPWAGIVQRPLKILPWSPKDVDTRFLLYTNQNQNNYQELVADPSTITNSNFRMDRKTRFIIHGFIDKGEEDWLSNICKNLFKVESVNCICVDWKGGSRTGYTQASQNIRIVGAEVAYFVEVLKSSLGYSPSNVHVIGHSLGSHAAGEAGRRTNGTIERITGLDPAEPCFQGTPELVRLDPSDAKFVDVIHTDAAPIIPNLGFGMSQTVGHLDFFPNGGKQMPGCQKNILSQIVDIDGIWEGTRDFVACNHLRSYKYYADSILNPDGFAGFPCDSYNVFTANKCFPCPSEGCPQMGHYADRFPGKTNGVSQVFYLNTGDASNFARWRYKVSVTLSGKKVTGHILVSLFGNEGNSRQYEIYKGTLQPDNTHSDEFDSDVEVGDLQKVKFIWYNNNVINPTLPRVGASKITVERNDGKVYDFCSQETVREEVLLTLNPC
Method: Pancreatic lipase activity was measured using the method previously reported by Kim et al.. An enzyme buffer was prepared by the addition of 6 μL of porcine pancreatic lipase solution (Sigma-Aldrich, St. Louis, MO, USA) in a buffer (10 mM morpholinepropanesulfonic acid and 1 mM EDTA, pH 6.8) to Tris buffer (169 μL, 100 mM Tris-HCl, and 5 mM CaCl2, pH 7.0). […] The enzymatic reaction mixtures were incubated at 37 °C for 35 min. Pancreatic lipase activity was determined by measuring the hydrolysis of p-NPB to p-nitrophenol, with absorption being recorded at 405 nm using a microplate reader (Model Infinite M200 PRO; Tecan, Austria). Inhibition of lipase activity was expressed in terms of the percentage reduction in absorbance when porcine pancreatic lipase was incubated with the test compounds, and calculated using the following Equation (4) Inhibition (%) = 100 − [(B − b)/(A − a) × 100](4) where A is the lipase activity without inhibitor, a is the negative control without inhibitor, B is the lipase activity with inhibitor, and b is the negative control with inhibitor. The results are expressed as an average (n = 4).

[6] = target: tyrosinase; design: method as in PMID 12720364, doi:10.1021/jf980226+; conditions: compound isolated from cumin; cited from earlier work
[7] = target: tyrosinase; design: method as in doi:10.1007/s10600-014-1030-9; conditions: compound isolated from pollen of Calendula officinalis; cited from earlier work
[8] = system: tyrosinase; experiment: Tyrosinase inhibition assay (L-DOPA oxidation); type: biochemical; conditions: at 100 μg/mL
Method: The tyrosinase inhibition assay was performed using a modification of the method reported by Nerya et al.. A portion of a sample (20 μL) in DMSO (100 μg/mL) was mixed with 50 μL of 0.1 M potassium phosphate buffer (pH 6.8), to which was added 30 μL of 33 unit/mL tyrosinase and 100 μL of 12 mM L-3,4-dihydroxyphenylalanine (L-DOPA). The solution was mixed gently and the initial absorbance (Ainitial) was recorded at 492 nm using a microplate reader. The reaction mixture was then incubated at 37 °C for 4 min and thereafter the final absorbance (Afinal) was measured at 492 nm. Kojic acid was used as the reference drug. The tyrosinase inhibition activity was calculated as a percentage using the Equation (3) Tyrosinase inhibition activity (%) = [1 − (Afinal/Ainitial)] × 100(3)

Row | Radical Scavenging Activity Against ABTS IC50 [1] [µg/mL] | IC50 [1] [µM] | Radical-Scavenging Activity Against DPPH IC50 [4] [µg/mL] | IC50 [4] [µM] | inhibition at 10 µg/mL ([5]; Table S5) [%] | inhibition at 25 µg/mL ([5]; Table S5) [%] | inhibition at 50 µg/mL ([5]; Table S5) [%] | inhibition at 100 µg/mL ([5]; 100 μg/mL, Table S5) [%] | SMILES | ABTS Radical Scavenging (%) ([1]; 5 μg/mL) | ABTS Radical Scavenging (%) ([1]; 25 μg/mL) | ABTS Radical Scavenging (%) ([1]; 50 μg/mL) | DPPH Radical Scavenging (%) ([4]; 1 μg/mL) | DPPH Radical Scavenging (%) ([4]; 2 μg/mL) | DPPH Radical Scavenging (%) ([4]; 5 μg/mL) | DPPH Radical Scavenging (%) ([4]; 10 μg/mL) | DPPH Radical Scavenging (%) ([4]; 25 μg/mL) | DPPH Radical Scavenging (%) ([4]; 50 μg/mL) | DPPH Radical Scavenging (%) ([4]; 100 μg/mL) | DPPH Radical Scavenging (%) ([4]; 250 μg/mL) | DPPH Radical Scavenging (%) ([4]; 500 μg/mL) | other results
1 | 8.19 | 26.1 | 4.67 | 14.9 | 14.76 ± 0.01 | 15.87 ± 0.02 | 16.96 ± 0.02 | 17.28 ± 0.02 | COc1cc(/C=C/C(=O)NCCc2ccc(O)cc2)ccc1O [Compound 3, N-trans-feruloyltyramine] | 44.18 ± 2.64 | 78.71 ± 0.06 | 82.19 ± 1.38 | 0.86 ± 2.12 | 14.90 ± 1.63 | 54.29 ±0.30 | 63.25 ± 0.83 | 70.53 ± 1.74 | 78.51 ± 0.06 | 93.65 ± 1.70 | 95.51 ± 0.10 | 97.23 ± 0.33 | inhibition of human melanocyte tyrosinase [2]: 49 ± 4%; effect on microphthalmia-associated transcription factor, tyrosinase, and tyrosinase-related proteins [3]: downregulate
2 | 3.50 | 19.9 | 1.17 | 6.64 | – | – | – | – | O=C1O[C@H]([C@@H](O)CO)C(O)=C1O [L-Ascorbic acid, reference compound] | 70.41 ±0.28 | 99.75 ± 0.06 | 99.77 ± 0.08 | 45.09 ± 1.40 | 87.36 ± 2.24 | 97.41 ± 0.46 | 98.01 ± 0.07 | 97.50 ± 0.53 | 97.28 ± 0.27 | 97.03 ± 0.26 | 98.14 ± 0.15 | – | Radical-Scavenging Activity Against ABTS (%) ([1]; at 100 μg/mL): 99.5 ± 0.3 ^1%; Radical-Scavenging Activity Against DPPH (%) ([4]; at 100 μg/mL): 98.5 ± 0.2 ^1%
3 | – | – | – | – | 15.07 ± 0.01 | 36.64 ± 0.02 | 42.68 ± 0.01 | 52.6 | O=Cc1ccc(O)cc1 [Compound 2, p-hydroxybenzaldehyde] | 2.03 ± 0.00 | 3.97 ± 0.43 | 8.71 ± 0.21 | 2.93 ± 2.39 | 2.73 ± 2.15 | 3.58 ± 1.79 | 4.43 ± 0.36 | 3.61 ± 1.11 | 3.78 ± 1.40 | 3.89 ±2.50 | 7.28 ± 0.80 | 8.66 ± 0.30 | IC50 [6]: 820 µM; type of tyrosinase inhibition [6]: non-competitive; IC50 [5]: 710 µM
4 | 16.37 | 30.1 | 9.53 | 17.5 | 0.73 ± 0.01 | 21.17 ± 0.01 | 37.95 ± 0.02 | 41.11 ± 0.01 | COc1cc(/C=C/C(=O)O[C@@H]2C[C@@](OC(=O)/C=C/c3ccc(O)c(OC)c3)(C(=O)O)C[C@@H](O)[C@@H]2O)ccc1O [Compound 1, 1,3-di-O-trans-feruloyl-(−)-quinic acid] | 27.97 ± 4.11 | 66.31 ± 1.84 | 66.38 ± 1.47 | 11.87 ± 0.82 | 24.91 ± 0.78 | 38.70 ± 2.24 | 51.54 ± 1.30 | 82.94 ± 0.56 | 85.92 ± 1.27 | 89.88 ± 1.25 | 100.78 ± 1.46 | 101.99 ± 0.37 | IC50, activity of tyrosinase against diphenolase [7]: 134.4 ± 4.8 µg/mL; IC50, activity of tyrosinase against monophenolase [7]: 44.6 ± 1.5 µg/mL; IC50 [5]: 242 µM
5 | – | – | – | – | – | – | – | – | CCCCCCCCCCC[C@@H](C[C@@H]1OC(=O)[C@H]1CCCCCC)OC(=O)[C@H](CC(C)C)NC=O [Orlistat, orlistat, reference compound] | – | – | – | – | – | – | – | – | – | – | – | – | inhibition at 0.1 µg/mL ([5]; 0.10 μg/mL, Table S5): 22.98 ± 0.01%; inhibition at 0.25 µg/mL ([5]; 0.25 μg/mL, Table S5): 27.63 ± 0.01%; inhibition at 0.5 µg/mL ([5]; 0.50 μg/mL, Table S5): 51.17 ± 0.01%; inhibition at 1 µg/mL ([5]; 1.00 μg/mL, Table S5): 54.53 ± 0.02%; inhibition at 100 µg/mL ([5]; at 100 μg/mL): 67.8%
6 | – | – | – | – | – | – | – | – | O=c1cc(CO)occ1O [Kojic acid] | – | – | – | – | – | – | – | – | – | – | – | – | Inhibition of L-DOPA Oxidation (%) [8]: 98.6 ± 0.4 ^2%
